Experimental data from ChEMBL document CHEMBL3217751, “Potent inhibition of Ca2+-dependent activation of calpain-1 by novel mercaptoacrylates” (Medchemcomm, 2012).
The source made the active and inactive calls. The calls are words filed in the database; no cut-off is given here.

What was measured:
[1] = biological target: T1, Calpain-1 catalytic subunit (Sus scrofa, UniProt P35750); test: Inhibition of Ca2+-dependent activation of porcine calpain-1 using SucLY-AMC as substrate
T1 sequence (P35750 whole entry): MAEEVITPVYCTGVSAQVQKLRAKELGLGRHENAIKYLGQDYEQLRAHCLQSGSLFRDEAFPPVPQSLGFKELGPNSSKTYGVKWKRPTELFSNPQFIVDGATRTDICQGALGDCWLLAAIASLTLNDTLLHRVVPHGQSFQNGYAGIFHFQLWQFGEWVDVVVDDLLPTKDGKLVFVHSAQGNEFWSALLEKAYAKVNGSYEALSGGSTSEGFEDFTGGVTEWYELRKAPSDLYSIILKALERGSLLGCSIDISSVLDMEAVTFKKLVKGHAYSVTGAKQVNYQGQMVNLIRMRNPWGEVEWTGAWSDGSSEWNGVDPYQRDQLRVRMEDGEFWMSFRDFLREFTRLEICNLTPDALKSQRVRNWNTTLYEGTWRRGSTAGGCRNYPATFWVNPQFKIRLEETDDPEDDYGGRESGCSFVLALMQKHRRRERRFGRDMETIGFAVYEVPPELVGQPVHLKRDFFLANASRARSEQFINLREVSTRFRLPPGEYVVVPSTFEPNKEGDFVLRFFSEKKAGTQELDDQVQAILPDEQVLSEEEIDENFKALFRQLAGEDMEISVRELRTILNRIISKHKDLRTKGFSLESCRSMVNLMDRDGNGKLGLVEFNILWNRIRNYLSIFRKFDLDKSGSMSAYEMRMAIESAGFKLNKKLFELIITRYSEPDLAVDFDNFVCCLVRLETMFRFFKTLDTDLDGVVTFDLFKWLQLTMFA

[2] = biological target: T1, Calpain-1 catalytic subunit; test: Inhibition of Ca2+-dependent activation of porcine calpain-1 using H-K(FAM)-EVYGMMK(DABCYL)-OH as substrate by FRET assay
[3] = biological target: T2, Calpain-2 catalytic subunit (Homo sapiens, UniProt P17655); test: Inhibition of calpain-2 (unknown origin)
T2 sequence (P17655 whole entry): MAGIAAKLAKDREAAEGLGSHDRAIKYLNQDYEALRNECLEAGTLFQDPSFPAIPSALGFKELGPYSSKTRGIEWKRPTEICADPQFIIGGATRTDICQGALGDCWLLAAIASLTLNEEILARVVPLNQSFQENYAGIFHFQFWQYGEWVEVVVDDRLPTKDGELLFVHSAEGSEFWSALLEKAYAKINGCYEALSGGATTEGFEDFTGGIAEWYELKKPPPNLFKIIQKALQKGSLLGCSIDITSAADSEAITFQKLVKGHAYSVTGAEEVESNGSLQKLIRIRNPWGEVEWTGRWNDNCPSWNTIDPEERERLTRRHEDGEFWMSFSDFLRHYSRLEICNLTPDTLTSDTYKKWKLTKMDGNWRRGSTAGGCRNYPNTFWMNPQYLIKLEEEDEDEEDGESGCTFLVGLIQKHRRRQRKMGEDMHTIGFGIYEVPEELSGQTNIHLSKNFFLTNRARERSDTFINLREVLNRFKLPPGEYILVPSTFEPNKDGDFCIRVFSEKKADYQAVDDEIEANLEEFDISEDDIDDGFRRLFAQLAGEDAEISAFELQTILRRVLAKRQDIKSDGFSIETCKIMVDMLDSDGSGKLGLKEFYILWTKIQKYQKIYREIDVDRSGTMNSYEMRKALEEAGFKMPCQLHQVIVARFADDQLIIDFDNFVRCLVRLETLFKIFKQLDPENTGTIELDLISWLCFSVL

[4] = biological target: T3, Calpain-1 catalytic subunit (Homo sapiens, UniProt P07384); test: Inhibition of human erythrocytes mu-calpain using SLLVY-AMC as substrate after 60 mins
T3 sequence (P07384 whole entry): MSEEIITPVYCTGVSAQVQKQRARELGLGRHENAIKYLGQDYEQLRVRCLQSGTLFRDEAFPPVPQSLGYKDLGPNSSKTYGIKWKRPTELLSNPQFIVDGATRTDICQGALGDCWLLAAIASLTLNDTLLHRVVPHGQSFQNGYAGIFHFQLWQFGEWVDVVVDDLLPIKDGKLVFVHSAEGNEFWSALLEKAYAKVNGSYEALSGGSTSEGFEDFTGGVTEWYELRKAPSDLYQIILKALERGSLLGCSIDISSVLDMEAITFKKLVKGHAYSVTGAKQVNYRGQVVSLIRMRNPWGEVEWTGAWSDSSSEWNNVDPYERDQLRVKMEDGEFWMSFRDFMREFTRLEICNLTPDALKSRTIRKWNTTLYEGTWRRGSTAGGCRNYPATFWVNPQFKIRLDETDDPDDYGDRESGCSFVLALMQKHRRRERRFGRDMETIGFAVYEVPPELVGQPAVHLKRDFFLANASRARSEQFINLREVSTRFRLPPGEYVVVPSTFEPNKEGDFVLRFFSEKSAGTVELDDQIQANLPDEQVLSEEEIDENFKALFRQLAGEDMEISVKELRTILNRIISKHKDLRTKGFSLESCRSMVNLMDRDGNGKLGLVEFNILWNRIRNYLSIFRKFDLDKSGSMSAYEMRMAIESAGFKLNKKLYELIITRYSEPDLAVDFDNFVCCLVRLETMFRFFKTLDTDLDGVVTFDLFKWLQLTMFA

[5] = biological target: T4, Calpain-1 catalytic subunit (Homo sapiens) (UniProt P07384); test: Inhibition of calpain-1 in human neutrophils assessed as cell spreading at 10 uM
T4 sequence (whole entry): T3 sequence (P07384 whole entry)

SMILES	IC50 [1]	IC50 [2]	Ki [3]	Ki [4]	inhibition [5]
O=C(O)/C(S)=C/c1c[nH]c2c(Cl)cccc12	90 nM	10 nM			
O=C(O)/C(S)=C/c1cccc(Br)c1	8400 nM	4000 nM			
O=C(O)/C(S)=C/c1cccc(Cl)c1	13100 nM	4200 nM			
O=C(O)/C(S)=C/c1c[nH]c2cccc(F)c12	300 nM	10 nM			
O=C(O)/C(S)=C/c1ccc(F)cc1	5600 nM	6900 nM			
O=C(O)/C(S)=C/c1ccc(Cl)cc1	15000 nM	2600 nM			
O=C(O)/C(S)=C/c1c[nH]c2c(F)cccc12	110 nM	120 nM			
O=C(O)/C(S)=C/c1c[nH]c2cc(Br)ccc12	90 nM	7 nM			Active
O=C(O)/C(S)=C/c1c[nH]c2ccc(Br)cc12	20 nM	6 nM			
O=C(O)/C(S)=C/c1c[nH]c2cccc(Cl)c12	140 nM	20 nM			
O=C(O)/C(S)=C/c1cccc(I)c1	23900 nM	4300 nM			
O=C(O)/C(S)=C/c1c[nH]c2ccc(Cl)cc12	50 nM	250 nM			
O=C(O)/C(S)=C/c1cccc(F)c1	31500 nM	19000 nM			
O=C(O)/C(S)=C/c1c[nH]c2c(I)cccc12	220 nM	90 nM			

Next, values leading:

IC50 [1]	IC50 [2]	Ki [3]	Ki [4]	inhibition [5]	SMILES
100 nM	6 nM				O=C(O)/C(S)=C/c1c[nH]c2cccc(Br)c12
930 nM	800 nM	5330 nM	260 nM		O=C(O)/C(S)=C/c1c[nH]c2ccc(F)cc12
9100 nM	21000 nM				O=C(O)/C(S)=C/c1ccccc1Br
20700 nM	11900 nM				O=C(O)/C(S)=C/c1ccccc1Cl
1500 nM	1500 nM				O=C(O)/C(S)=C/c1ccc(Br)cc1
5200 nM	2200 nM	370 nM	210 nM		O=C(O)/C(S)=C/c1ccc(I)cc1
100 nM	210 nM			Active	O=C(O)/C(S)=C/c1c[nH]c2cc(Cl)ccc12
23200 nM	21900 nM				O=C(O)/C(S)=C/c1ccccc1F
70 nM	2 nM				O=C(O)/C(S)=C/c1c[nH]c2c(Br)cccc12
90 nM	100 nM				O=C(O)/C(S)=C/c1c[nH]c2ccc(I)cc12
300 nM	170 nM				O=C(O)/C(S)=C/c1c[nH]c2cc(I)ccc12
300 nM	10 nM			Active	O=C(O)/C(S)=C/c1c[nH]c2cc(F)ccc12
